Laboratory results taken from ChEMBL document CHEMBL5244230, “Artemisinin-derived hybrids and their anticancer activity” (Eur J Med Chem, 2020).
Converted amounts (≈) assume the structure as drawn. “And” between values parts separate entries of the source, which are not always exact repeats. Equal values may be shown once.

What was measured:
UACC-62 [1] = experiment: Anticancer activity against human UACC-62 cells; format: functional, cell-based
TK-10 [2] = experiment: Anticancer activity against human TK-10 cells; format: functional, cell-based
MCF7 [3] = experiment: Anticancer activity against human MCF7 cells; format: functional, cell-based
UACC-62 [4] = experiment: Anticancer activity against human UACC-62 cells assessed as total growth inhibition; format: functional
[5] = Cytotoxicity against CHO cells; format: toxicity, cell-based, Cricetulus griseus; details: Chinese hamster
TK-10 [6] = experiment: Anticancer activity against human TK-10 cells assessed as total growth inhibition; format: functional
MCF7 [7] = experiment: Anticancer activity against human MCF7 cells assessed as total growth inhibition; format: functional
[8] = Blood clearance in rat at 100 mg/kg, po; format: ADME, organism-based
HCT-15 = experiment: Antiproliferative activity against human HCT-15 cells assessed as cell growth inhibition by MTT assay; format: functional, cell-based
A549 [9] = experiment: Antiproliferative activity against human A549 cells assessed as cell growth inhibition by MTT assay; format: functional, cell-based
HepG2 [10] = experiment: Antiproliferative activity against human HepG2 cells assessed as cell growth inhibition by MTT assay; format: functional, cell-based
Hep 3B2 = experiment: Antiproliferative activity against human Hep3B cells assessed as reduction in cell viability; format: functional, cell-based
HepG2 [11] = experiment: Antiproliferative activity against human HepG2 cells assessed as reduction in cell viability; format: functional, cell-based; details: hepg2
OVCAR-3 = experiment: Antiproliferative activity against human OVCAR-3 cells assessed as reduction in cell viability; format: functional, cell-based
A2780 = experiment: Antiproliferative activity against human A2780 cells assessed as reduction in cell viability; format: functional, cell-based
K562 = experiment: Antiproliferative activity against human K562 cells; format: functional, cell-based
HEK293 = experiment: Antiproliferative activity against human HEK293 cells; format: functional, cell-based
A-431 = experiment: Antiproliferative activity against human A-431 cells; format: functional, cell-based
A549 [12] = experiment: Antiproliferative activity against human A549 cells; format: functional, cell-based
COLO 205 = experiment: Antiproliferative activity against human COLO 205 cells; format: functional, cell-based
[13] = Cytotoxicity against human HEK293 cells; format: toxicity, cell-based
PC-3 [14] = experiment: Antiproliferative activity against human PC-3 cells; format: functional, cell-based
MDA-MB-231 = experiment: Antiproliferative activity against human MDA-MB-231 cells; format: functional, cell-based; details: Homo sapiens, MDA-MB-231
A549 [15] = experiment: Antiproliferative activity against human A549 cells assessed as reduction in cell viability measured for 24 hrs; format: functional, cell-based; details: A549, 24 h
SGC-7901 = experiment: Antiproliferative activity against human SGC-7901 cells assessed as reduction in cell viability measured for 24 hrs; format: functional, cell-based; details: SGC-7901, 24 h
PC-3 [16] = experiment: Antiproliferative activity against human PC-3 cells assessed as reduction in cell viability measured for 24 hrs; format: functional, cell-based; details: PC-3, 24 h
Leukemia cell = experiment: Antiproliferative activity against human Leukemia cell; format: functional
Melanoma cell line = experiment: Antiproliferative activity against human Melanoma cell; format: functional
Plasmodium falciparum [17] = experiment: Antiplasmodial activity against Plasmodium falciparum K1; format: functional, organism-based
Plasmodium falciparum [18] = experiment: Antiplasmodial activity against Plasmodium falciparum HB3; format: functional, organism-based
Prostatic carcinoma cell = experiment: Antiproliferative activity against human Prostatic carcinoma cell; format: functional
Colon cell line = experiment: Antiproliferative activity against human Colon cell line; format: functional
EL4 = experiment: Antiproliferative activity against mouse EL4 cells; format: functional, cell-based
HT-29 = experiment: Antiproliferative activity against human HT-29 cells; format: functional, cell-based
HeLa = experiment: Cytotoxicity against human HeLa cells assessed as cell viability incubated for 48 hrs by MTT assay; format: functional, cell-based
Ca9-22 = experiment: Cytotoxicity against human Ca9-22 cells; format: functional, cell-based
HSC-2 = experiment: Cytotoxicity against human HSC-2 cells; format: functional, cell-based
HepG2 [19] = experiment: Antiproliferative activity against human HepG2 cells; format: functional, cell-based
HL-60 = experiment: Antiproliferative activity against human HL-60 cells; format: functional, cell-based

Which GI50 (UACC-62 [1]) does the source give for C[C@H]1[C@@H](OCCN(CCCNc2ccnc3cc(Cl)ccc23)CCO[C@H]2O[C@@H]3O[C@@]4(C)CC[C@H]5[C@H](C)CC[C@@H]([C@H]2C)[C@@]35OO4)O[C@@H]2O[C@@]3(C)CC[C@H]4[C@H](C)CC[C@@H]1[C@@]24OO3 here?
Its GI50 is 30 nM.

And the GI50 (TK-10 [2])?
Its GI50 is 30 nM.

And the GI50 (MCF7 [3])?
Its GI50 is 30 nM.

And the TGI (UACC-62 [4])?
Its TGI is 2210 nM.

And the IC50 [5]?
The IC50 was 680 nM.

And the TGI (TK-10 [6])?
Its TGI is 2210 nM.

What about the TGI (MCF7 [7]) of the same compound?
Its TGI is 2210 nM.

And the CL/F [8]?
The CL/F was 184 L/h/kg.

With C[C@@H]1CC[C@@H]2[C@]34OO[C@](C)(CC[C@@H]13)O[C@H]4OC(=O)[C@@]21CC(c2ccccc2)=NO1 as the compound, how does the IC50 (HCT-15) read?
The IC50 was 4040 nM.

And the IC50 (A549 [9])?
Its IC50 is 4040 nM.

What about the IC50 (HepG2 [10]) of the same compound?
The IC50 was 4040 nM.

Which results are given for CCN(CC)c1ccc2cc(C(=O)NCCNC(=O)CN3CCN(CCC[C@H]4O[C@@H]5O[C@@]6(C)CC[C@H]7[C@H](C)CC[C@@H]([C@H]4C)[C@@]57OO6)CC3)c(=O)oc2c1?
IC50 (Hep 3B2): 2330 nM; IC50 (HepG2 [11]): 2330 nM and 6280 nM; IC50 (OVCAR-3): 2330 nM; IC50 (A2780): 2330 nM

What does the source list for C[C@H]1[C@@H](OCc2cn(-c3ccc(O)cc3)nn2)O[C@@H]2O[C@@]3(C)CC[C@H]4[C@H](C)CC[C@@H]1[C@@]24OO3?
IC50 (K562): 4060 nM; IC50 (HEK293): 4060 nM; IC50 (A-431): 4060 nM; IC50 (A549 [12]): 4060 nM; IC50 (COLO 205): 4060 nM; IC50 [13]: > 100 µg/mL; IC50 (PC-3 [14]): 4060 nM; IC50 (MDA-MB-231): 4060 nM

For COc1ccc(Sc2cccc(C(=O)O[C@@H]3O[C@@H]4O[C@@]5(C)CC[C@H]6[C@H](C)[C@H](OC(=O)c7cccc(Sc8ccc(OC)cc8)c7)C[C@@H]([C@H]3C)[C@@]46OO5)c2)cc1, which IC50 (A549 [15]) is on record?
Its IC50 is 1600 nM.

And the IC50 (SGC-7901)?
The IC50 was 1600 nM.

What about the IC50 (PC-3 [16]) of the same compound?
Its IC50 is 1600 nM.

With COP(=O)(OCC[C@H]1[C@@H](C)O[C@@H]2O[C@@]3(C)CC[C@H]4[C@H](C)CC[C@@H]1[C@@]24OO3)OCC[C@H]1O[C@@H]2O[C@@]3(C)CC[C@H]4[C@H](C)CC[C@@H]([C@H]1C)[C@@]24OO3 (some centres not stated) as the compound, how does the GI50 (Leukemia cell) read?
Its GI50 is less than 10 nM.

And the GI50 (Melanoma cell line)?
The GI50 was less than 10 nM.

And the IC50 (Plasmodium falciparum [17])?
The IC50 was 0.09 nM.

And the IC50 (Plasmodium falciparum [18])?
Its IC50 is 0.09 nM.

And the GI50 (Prostatic carcinoma cell)?
The GI50 was less than 10 nM.

What about the GI50 (Colon cell line) of the same compound?
The GI50 was less than 10 nM.

Which results are given for C[C@H]1[C@@H](CCSCC[C@H]2O[C@@H]3O[C@@]4(C)CC[C@H]5[C@H](C)CC[C@@H]([C@H]2C)[C@@]35OO4)O[C@@H]2O[C@@]3(C)CC[C@H]4[C@H](C)CC[C@@H]1[C@@]24OO3?
IC50 (EL4): 17 nM; IC50 (HT-29): 17 nM; IC50 (MCF7 [3]): 17 nM

Which results are given for C[C@H]1[C@@H](CCOP(=O)(OCC[C@H]2[C@@H](C)O[C@@H]3O[C@@]4(C)CC[C@H]5[C@H](C)CC[C@@H]2[C@@]35OO4)Oc2ccccc2)O[C@@H]2O[C@@]3(C)CC[C@H]4[C@H](C)CC[C@@H]1[C@@]24OO3 (some centres not stated)?
GI50 (Leukemia cell): 10 nM; GI50 (Melanoma cell line): < 10 nM; IC50 (Plasmodium falciparum [17]): 0.09 nM; IC50 (Plasmodium falciparum [18]): 0.09 nM; GI50 (Prostatic carcinoma cell): < 10 nM; GI50 (Colon cell line): < 10 nM

Which IC50 (HeLa) does the source give for COc1ccc2nc3cc(Cl)ccc3c(N3CCN(CCNCCO[C@H]4O[C@@H]5O[C@@]6(C)CC[C@H]7[C@H](C)CC[C@@H]([C@H]4C)[C@@]57OO6)CC3)c2c1 here?
The IC50 was 400 nM.

What does the source list for C[C@H]1[C@@H](CCC(=O)Nc2cnc3ccccc3c2)O[C@@H]2O[C@@]3(C)CC[C@H]4[C@H](C)CC[C@@H]1[C@@]24OO3?
IC50 (Ca9-22): 49700 nM; IC50 (HSC-2): 36900 nM

Which IC50 (HepG2 [19]) does the source give for C[C@H]1[C@@H](NC(=O)CCC(=O)NO)O[C@@H]2O[C@@]3(C)CC[C@H]4[C@H](C)CC[C@@H]1[C@@]24OO3 here?
The IC50 was 1.28 µg/mL (≈ 3.21 µM).

What about the IC50 (HL-60) of the same compound?
Its IC50 is 1.28 µg/mL (≈ 3.21 µM).

And the IC50 (MCF7 [3])?
Its IC50 is 1.28 µg/mL.
